Results published in US20130189203A1, “COSMETIC ADDITIVES CONTAINING ALKALI PHOSPHATES” (BK Giulini GmbH, priority 2012, published 2013).

Experiment: complex formation with iron ions in sun protection formulation, colour measurement (Minolta Chroma-Meter CR 300)
Details: formulation + 0.01% iron (III) chloride hexahydrate + 0.09% additive, after 6 weeks
Protocol: As a base formulation, the formulation of a sun protection agent with butyl methoxy dibenzoylmethane was used. This UVA filter forms an intensive red complex with traces of irons The complexing effect was studied using the following formulation:
The aqueous phase of the formulation was prepared by dissolving Phase B in Phase A until a homogeneous phase resulted. This was brought to a temperature of ca. 75-80° C. Phase C was prepared by dissolving Cosmedia Gel CC in the rest of Phase C until a homogeneous phase resulted. This was heated to ca. 75-80° C., followed by addition of phase D, and then Phase E was stirred in. The mixture of phases C, D, and E was added to the aqueous phase, and this mixture was stirred 5 min at 750 rpm. Then the formulation was cooled to room temperature while stirring at 200 rpm, during which at ca. 60° C. the mixture was homogenised 1 min at 11000 rpm with the aid of an Ultra Turrax stirrer.
The following additives were added to the described formulation:
The respective amount of iron (III) chloride hexahydrate, Carephos N (linear alkali polyphosphate), disodium EDTA, Utanit AF (acid diphosphate, for comparison), and [sic] Phoskadent Pyro (alkali diphosphate, for comparison) was worked into the aqueous phase and was removed from the water content [sic].
The evaluation was carried out by colour measurement. Using a Minolta Chroma-Meter CR 300, the colour status of the formulas was determined after 6 weeks. The measurements yielded values which allowed an objective comparison of the individual formulations. The measurements determined 3 values: L, a, and b. The L value describes lightness and darkness, with 0 representing perfect black and 100 perfect white. The a value describes the red-green value, and the b value describes the yellow-blue value. There are different prefix signs on the a and b values, in accordance with the present CIE Lab system, according to which no colour can be simultaneously reddish and greenish or simultaneously yellowish and bluish. Thus, −a represents green, +a represents red, −b represents blue, and +b represents yellow. […]

Structure (SMILES): O=C([O-])CN(CCN(CC(=O)[O-])CC(=O)O)CC(=O)O.[Na+].[Na+] [Disodium EDTA]
- L value (difference to white standard): −26.44
- a value (red-green; difference to white standard): +5.18
- b value (yellow-blue; difference to white standard): +4.10
